According to ChEMBL document CHEMBL1133027, “Novel inhibitors of HIV protease: design, synthesis and biological evaluation of picomolar inhibitors containing cyclic P1/P2 scaffolds” (Bioorg Med Chem Lett, 2000):

Columns and labels:
MT4 = assay: Compound was evaluated for its antiviral inhibition in MT-4 cell culture; assay type: functional, cell-based; details: Homo sapiens
[1] = molecular target: Human immunodeficiency virus type 1 protease (Human immunodeficiency virus 1, UniProt Q72874); assay: Inhibition of HIV protease

| Compound | IC50 (MT4) | Ki [1] |
| --- | --- | --- |
| CC(C)(C)NC(=O)[C@@H]1C[C@@H]2CCCC[C@@H]2CN1C[C@@H](O)[C@H](Cc1ccccc1)NC(=O)[C@H](CC(N)=O)NC(=O)c1ccc2ccccc2n1 | 20 nM | – |
| CC(C)CN(C[C@@H](O)[C@H](Cc1ccccc1)NC(=O)O[C@H]1CCOC1)S(=O)(=O)c1ccc(N)cc1 | 100 nM | – |
| O=C(N[C@H]1c2ccccc2C[C@H]1O)[C@H](Cc1ccccc1)C[C@H](O)CN1C(=O)CC[C@@H]1Cc1ccccc1 | > 50000 nM | 330 nM |
| O=C(N[C@H]1c2ccccc2C[C@H]1O)[C@H](Cc1ccccc1)C[C@H](O)CN1C(=O)N(Cc2ccccc2)C[C@@H]1Cc1ccccc1 | 300 nM | 1.2 nM |
| O=C(N[C@H]1c2ccccc2C[C@H]1O)[C@H](Cc1ccccc1)C[C@H](O)CN1C(=O)[C@@H](Cc2ccccc2)C[C@@H]1Cc1ccccc1 | 300 nM | 0.05 nM |
| O=C(N[C@H]1c2ccccc2C[C@H]1O)[C@H](Cc1ccccc1)C[C@H](O)CN1C(=O)[C@H](Cc2ccccc2)C[C@@H]1Cc1ccccc1 | – | > 0.5 nM |
| O=C(N[C@H]1c2ccccc2C[C@H]1O)[C@H](Cc1ccccc1)C[C@H](O)CN1[C@@H](Cc2ccccc2)CN(Cc2ccccc2)S1(=O)=O | 1500 nM | 0.8 nM |
| O=C(N[C@H]1c2ccccc2C[C@H]1O)[C@H](Cc1ccccc1)C[C@@H](O)CN1C(=O)CC[C@@H]1Cc1ccccc1 | > 50000 nM | – |
| O=C1N[C@H](Cc2ccccc2)C(=O)[C@H]1Cc1ccccc1 | 300 nM | 0.05 nM |
| O=C(N[C@H]1c2ccccc2C[C@H]1O)[C@H](Cc1ccccc1)C[C@H](O)CN1[C@@H](Cc2ccccc2)C[C@H](Cc2ccccc2)S1(=O)=O | – | 16 nM |
| CC(C)(C)NC(=O)[C@@H]1CN(Cc2cccnc2)CCN1C[C@@H](O)C[C@@H](Cc1ccccc1)C(=O)N[C@H]1c2ccccc2C[C@H]1O | 40 nM | – |
| Cc1c(O)cccc1C(=O)N[C@@H](CSc1ccccc1)[C@H](O)CN1C[C@H]2CCCC[C@H]2C[C@H]1C(=O)NC(C)(C)C | 50 nM | – |
| CC(C)c1nc(CN(C)C(=O)N[C@H](C(=O)N[C@@H](Cc2ccccc2)C[C@H](O)[C@H](Cc2ccccc2)NC(=O)OCc2cncs2)C(C)C)cs1 [RITONAVIR] | 210 nM | – |
